Legend:
[1] = test system: cultured hippocampal neurons; test: field EPSC (fEPSC) recording before and after TBS; assay type: cell-based, rat
Description: (§1) Electrophysiology. Dual whole cell perforated patch clamp recordings were made on two interconnected cultured hippocampal pyramidal neurons. Perforated patch pipettes were front-filled with a solution containing (in mM): CsOH, 127; D-gluconic acid, 127; CsCl, 4; HEPES, 10; NaCl, 8; EGTA, 0.4; pH was adjusted to 7.25 with CsOH, and then back-filled with the same solution containing […] amphotericin B (Sigma, St. Louis, Mo.). Extracellular solution contained (in mM): NaCl, 145; KCl, 3; glucose, 15; HEPES, 10; MgCl2, 0.8-1.2; CaCl2, 1.2; 0.005 glycine (Sigma), 0.05 picrotoxin (Sigma); pH adjusted to 7.4 with NaOH. MgCl2 concentration was matched to its concentration in culture medium. In experiments where effects of drugs on neuronal activity were quantified (FIG. 4D), recordings were done in culture medium (with HEPES replacing bicarbonate/CO2 to maintain pH). All experiments were performed at room temperature. For assaying synaptic connectivity, each neuron was stimulated by 1 ms step depolarization from −70 to +30 mV in voltage-clamp mode. Only neurons with monosynaptic connections were used. […] Recordings with access resistance>20 MΩ or that varied substantially were rejected from analysis.
To confirm that such a prominent TBS-induced increase in Pr does contribute to the enhancement of total synaptic strength, the magnitude of potentiation was tested electrophysiologically by sampling field EPSCs (fEPSCs) before and after TBS. The whole cell recording was obtained under perforated patch configuration to avoid wash-out of the intracellular components critical for synaptic plasticity. The membrane potential was clamped at −70 mV and EPSCs were evoked by field stimulation at a sampling frequency of 0.03 Hz. [Mg^2+]o during sampling was 4 mM to reduce background neural activity. The intensity of field stimulation was adjusted to produce a half maximal fEPSC amplitude. After 30 minutes of sampling were employed to determine the baseline level of synaptic strength, the bath solution was changed to 1.2 mM [Mg^2+]o and the recording configuration to current-clamp mode to allow for membrane voltage fluctuations. TBS was delivered at the same amplitude and temporal profiles as for the FM experiments.

[2] = test system: NMDAR; test: voltage-dependence of NMDAR Mg^2+ block, NMDA currents evoked by glutamate iontophoresis; assay type: cell-based, rat
Text: Analysis of voltage-dependence of NMDAR Mg^2+ block. For studying the voltage-dependence of NMDAR Mg^2+ block, NMDA currents were evoked by local application of glutamate using the high-speed iontophoresis technique (Murnick et al., 2002). The current traces for each cell were normalized to their value at +40 mV membrane potential. The voltage dependency of NMDA currents was modeled using the Woodhull function (Woodhull, 1973). The NMDA channel conductance in the presence and absence of Mg^2+ was related according to the relationship: [formula] • where KMg is the voltage-independent affinity of Mg^2+ for the channel (0 mV membrane potential), δ is the electrical distance of the Mg^2+ binding site in the membrane field, E is membrane potential, and z is the valence of the blocking ion. RT/F was 25.4 mV (21° C.).
Although the biophysics of Mg^2+ block have been studied extensively (Mayer et al., 1984; Nowak et al., 1984; Jahr and Stevens, 1990), we wished to determine precisely the behavior of the Mg^2+ block at near-physiologic concentrations. […] We evoked NMDA currents by iontophoretic application of glutamate to a putative single bouton identified by FM 1-43 labeling and recorded under whole cell patch clamp in the presence of the AMPAR blocker, NBQX (10 μM). […] (Renger et al., 2001).

[3] = molecular target: NMDA receptors (NR2B-containing) (Rattus norvegicus, UniProt P35439+Q00960); test: evoked NMDA currents ([…]), double-perforated patch; assay type: cell-based
Chain of NMDA receptors (NR2B-containing) (Q00960 27-1482, other chains not shown): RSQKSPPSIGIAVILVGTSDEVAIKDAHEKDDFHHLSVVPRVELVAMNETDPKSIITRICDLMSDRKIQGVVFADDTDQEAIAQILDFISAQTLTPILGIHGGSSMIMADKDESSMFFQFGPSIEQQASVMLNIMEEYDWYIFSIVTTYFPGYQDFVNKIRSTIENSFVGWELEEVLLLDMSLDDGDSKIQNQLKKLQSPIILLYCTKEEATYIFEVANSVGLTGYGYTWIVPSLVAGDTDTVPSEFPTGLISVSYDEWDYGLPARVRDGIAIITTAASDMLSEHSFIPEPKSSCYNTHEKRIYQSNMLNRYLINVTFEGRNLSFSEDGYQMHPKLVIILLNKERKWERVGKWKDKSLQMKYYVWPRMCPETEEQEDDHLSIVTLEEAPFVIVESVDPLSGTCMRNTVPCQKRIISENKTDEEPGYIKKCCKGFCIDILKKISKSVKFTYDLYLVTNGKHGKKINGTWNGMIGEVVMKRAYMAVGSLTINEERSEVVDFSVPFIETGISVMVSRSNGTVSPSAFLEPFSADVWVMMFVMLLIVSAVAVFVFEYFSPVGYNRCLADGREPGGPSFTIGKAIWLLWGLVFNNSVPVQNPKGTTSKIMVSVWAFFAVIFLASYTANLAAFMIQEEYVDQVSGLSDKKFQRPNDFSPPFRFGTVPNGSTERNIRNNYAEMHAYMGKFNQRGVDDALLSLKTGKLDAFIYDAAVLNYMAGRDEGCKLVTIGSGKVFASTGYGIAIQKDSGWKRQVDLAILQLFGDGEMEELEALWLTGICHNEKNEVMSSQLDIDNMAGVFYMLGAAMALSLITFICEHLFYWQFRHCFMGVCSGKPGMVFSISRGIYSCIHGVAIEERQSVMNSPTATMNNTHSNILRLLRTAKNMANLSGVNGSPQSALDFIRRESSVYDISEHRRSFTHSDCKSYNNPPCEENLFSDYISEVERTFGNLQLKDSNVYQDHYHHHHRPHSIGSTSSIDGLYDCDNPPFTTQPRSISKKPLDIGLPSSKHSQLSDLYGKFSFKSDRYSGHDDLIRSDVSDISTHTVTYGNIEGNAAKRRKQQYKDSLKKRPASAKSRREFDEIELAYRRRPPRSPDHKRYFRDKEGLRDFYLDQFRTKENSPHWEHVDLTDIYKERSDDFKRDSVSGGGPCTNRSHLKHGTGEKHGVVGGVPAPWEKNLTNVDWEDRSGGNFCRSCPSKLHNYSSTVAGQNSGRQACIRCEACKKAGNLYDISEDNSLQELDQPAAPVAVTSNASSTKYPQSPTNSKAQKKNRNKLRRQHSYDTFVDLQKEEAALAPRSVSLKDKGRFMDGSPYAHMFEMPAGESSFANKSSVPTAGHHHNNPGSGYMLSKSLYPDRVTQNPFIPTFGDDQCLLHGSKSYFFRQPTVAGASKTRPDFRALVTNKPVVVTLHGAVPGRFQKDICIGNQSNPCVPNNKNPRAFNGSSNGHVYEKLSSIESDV
Description: as §1
We hypothesized that one target may be the number and properties of NMDA receptors at individual synapses.

[4] = rat, in vivo
Description: Determination of [Mg^++] in CSF. Total Mg^++ levels in CSF in control and Mg^++-treated rats were determined by a colorimetric method with xylidyl blue (Anilytics Incorporated, MD) (Thomas, L. (1998). Clinical Laboratory diagnostics. 1st ed. Francfurt: TH-Books Verlagsgesellschaft, 231-41.)
Behavior test: Novel object recognition. The subjects were 20 experimentally naive, female, Sprague-Dawley rats (Charles River), 1 year old at the beginning of the experiment. They were housed two per cage with continuous access to food and water under a 12:12 light-dark cycle, with light onset at 8:00 a.m. Rats in the Mg^++-treated group received drinking water containing 6 mg/kg/day MgCl2 for 4 months before experiments.
We noted that the extracellular concentration Mg^+ in the CSF of a normal human brain is about 1.2 mM, the same concentration at which we obtained the maximum synaptic plasticity in vitro (FIG. 8B). We tested whether increasing Mg^++ concentration might also lead to enhanced synaptic plasticity in rats in vivo. Since Mg^++ is an essential mineral, normally obtained only by ingestion, we added a low quantity of Mg^++ (˜6 mg/kg/day) to drinking water in attempt to raise CSF Mg^++ concentration. This amount was proportional to that recommended by the FDA as a daily food supplement for humans. Two groups of adult Sprague-Dawley rats (8 months) were used as experimental populations. […]

[5] = rat, in vivo; remark: listed apart in the source

[Mg+2] [Mg^++]
TBS-induced increase in fEPSC amplitude [1]: 2.7 fold | duration of fEPSC increase [1]: at least 1.5 hours | fEPSC2/fEPSC1 [1]: 2.7±0.6 | increase of synaptic strength after TBS induction, average [1]: 2.7 fold | time to maximum of fEPSC increase after TBS [1]: ~10 min | effect on NMDA current [2]: had no effect | reduction (attenuation) of NMDA current [2]: ~60% | reduction of EPSCNMDA amplitude [2]: 50% | size of outward EPSCNMDA [2]: remained relatively unchanged | N/A ratio (GNMDA/GAMPA) [3]: increased significantly | change in EPSCNMDA decay [3]: 2 fold | ifenprodil-sensitivity of EPSCNMDA in treated versus control cultures [3]: much higher than in the controls | increase of quantal charge transfer through NMDARs (QNMDA) [3]: 2.4 fold | increase in CSF [Mg] [4]: approximately 0.13 mM | general status of the rats (body weight, mobility) [5]: did not observe any significant change in the general status

— patent US20060089335A1, “Compositions and methods for enhancing cognitive function and synaptic plasticity” (priority 2003, published 2006)
